For data set [1], the target named is T1, human IBAT (Homo sapiens, UniProt Q12908).
T1 construct: expressed in transfected cells; host or cells: HEK293
T1 sequence (Q12908 1-348): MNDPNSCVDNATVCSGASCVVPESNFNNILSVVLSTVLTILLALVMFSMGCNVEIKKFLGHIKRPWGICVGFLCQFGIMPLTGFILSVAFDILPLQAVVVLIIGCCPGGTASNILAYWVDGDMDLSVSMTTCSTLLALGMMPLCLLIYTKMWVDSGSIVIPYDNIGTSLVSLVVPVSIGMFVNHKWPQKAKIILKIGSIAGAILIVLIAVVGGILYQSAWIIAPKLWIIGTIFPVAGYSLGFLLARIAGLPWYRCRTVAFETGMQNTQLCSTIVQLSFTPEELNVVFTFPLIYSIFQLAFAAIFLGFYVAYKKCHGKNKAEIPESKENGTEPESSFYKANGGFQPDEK
The experiment in a line: IBAT counter screen, [3H]taurocholic acid uptake in IBAT-transfected HEK293 cells. To be noted: for EC50: read-out: pEC50 human IBAT (converted). The format is cell-based. As for the experimental part: Following a 40-min incubation, the solution was removed, and the cells were washed twice with uptake buffer. Cells were lysed by addition of 20 μL 0.1% Tween 80 followed by 100 μL scintillation fluid and counted using a TopCount (Perkin Elmer).

For data set [2], the target named is T2, human TGR5 (Homo sapiens, UniProt Q8TDU6).
T2 construct: expressed in transfected cells
T2 sequence (Q8TDU6 1-330): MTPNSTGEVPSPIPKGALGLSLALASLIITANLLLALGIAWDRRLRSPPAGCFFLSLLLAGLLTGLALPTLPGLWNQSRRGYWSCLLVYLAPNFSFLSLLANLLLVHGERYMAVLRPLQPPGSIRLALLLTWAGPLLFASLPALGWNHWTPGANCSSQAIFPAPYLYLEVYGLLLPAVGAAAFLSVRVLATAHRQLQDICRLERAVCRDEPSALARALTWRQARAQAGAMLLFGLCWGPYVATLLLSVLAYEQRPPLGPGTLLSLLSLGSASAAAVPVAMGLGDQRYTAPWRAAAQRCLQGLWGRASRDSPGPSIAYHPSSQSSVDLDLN
Kind of data set: Cell-based TGR5 assay, HEK293 cells stably expressing human TGR5, cAMP by HTRF. The conditions noted are these: 0.05 nM to 10 μM; for EC50: HEK293 cells stably expressing human TGR5, 30 min at 37 C, read-out: pEC50 Human TGR5 (converted); for pEC50: pEC50 Human TGR5, HEK293 cells stably expressing human TGR5, 30 min at 37 C. Summed up: (§1)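 cAMP HTRF read-out, converted to concentration via standard curve, after a 30 min, 37 °C compound exposure in HBSS with 10 mM HEPES pH 7.4 and 0.5 mM IBMX, compounds serially diluted 3-fold from 10 mM DMSO stock then 100-fold. Cells: stable human TGR5 HEK293, or NCI-H716 expressing TGR5 endogenously.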
For orientation: In TR-FRET formats the signal depends on donor and acceptor labels being close together.

Data set [3] has as its target T3, endogenously expressed TGR5 in NCI H716 (Homo sapiens, UniProt Q8TDU6).
T3 construct: human caecum carcinoma cell line NCI-H716 which endogenously expresses human TGR5; endogenous in cells; host or cells: NCI-H716
T3 sequence (Q8TDU6 1-330): T2 sequence (Q8TDU6 1-330)
The experiment in a line: Cell-based TGR5 assay, NCI-H716 cells endogenously expressing human TGR5, cAMP by HTRF. The conditions noted are these: 30 min at 37 C, 22 nM to 50 μM, read-out: pEC50 endogenously expressed TGR5 in NCI H716 (converted). Summed up: as §1

Data set [4] is described as follows: Compound plasma concentration, LC-MS/MS, 8 h post dose. It counts as in vivo. The conditions noted are these: 30 mg/kg; for Number of Mice with Plasma Concentration < LLOQ: mice below LLOQ / mice in group; for concentration at 8 h: male, C57BL/6, mouse, mice, plasma, read-out: Mean Example Plasma Concentration. The method, then: (§2) Eight hours later, each mouse was heavily anesthetized with isoflurane, the peritoneal cavity was opened and the gallbladder, with its entire contents, was carefully excised and weighed. Blood was collected from the left ventricle of the heart and processed to plasma in EDTA-coated tubes containing aprotinin and DPPIV inhibitor for measurement of total GLP-1 (K150FCC; Meso Scales Discovery, Gaithersburg Md.).
Plasma samples were treated with acetonitrile containing an internal standard, precipitated proteins removed by centrifugation. Supernatants were analyzed by LC-MS/MS and compound concentrations were determined by interpolated from a standard curve prepared in plasma.

Data set [5] is described as follows: Compound concentration in gall bladder, LC-MS/MS, 8 h post dose. The format is in vivo. The conditions noted are these: 30 mg/kg; for Number of Mice with Gallbladder Concentration < LLOQ: mice below LLOQ / mice in group; for concentration at 8 h: male, C57BL/6, mouse, with contents, mice, gallbladder homogenate, read-out: Mean Example Gallbladder Concentration. The method, then: as §2
Compound concentrations in the gall bladder were determined as follows: each mouse was heavily anesthetized with isoflurane, the peritoneal cavity was opened and the gallbladder, with its entire contents, was carefully excised. After harvest, gall bladders were homogenized in 100 μL water using a micro-homogenizer. Samples of homogenate were diluted 1:5 in water and precipitated with three volumes of neat acetonitrile. After centrifugation, supernatants were analyzed by LC-MS/MS. The level of test compound present in gall bladder samples was interpolated from a standard curve for each individual compound prepared in a matrix of gallbladder homogenate from vehicle treated animals.

In data set [6] the test system is C57BL/6 male mice. The experiment in a line: In vivo gallbladder measurement (weight) 8 h post dose. To be noted: 30 mg/kg.
Text: as §2

pEC50: −log10 of the molar value. Read-outs that look alike come from different tables or passages of the source. Some results are limits rather than exact numbers.

`CN(C(=O)C1(OCc2cc(Cl)ccc2Cl)CC1)c1ccccc1OCC1CC1` [Example 40, N-(2-(cyclopropylmethoxy)phenyl)-1-(2,5-dichlorobenzyloxy)-N-methylcyclopropanecarboxamide]: the results for the EC50 in data set [1], in data set [2] and in data set [3] were above 25.1 µM, below 0.1 µM and 0.126 to 1 µM, respectively.

For `O=C(N1CCN(C2CC2)c2ccccc21)C1(NCc2cc(Cl)ccc2Cl)CCC1` [Example 56], the results for the EC50 in data set [1], in data set [2] and in data set [3] were above 25.1 µM, below 0.1 µM and below 0.1 µM, respectively.

Turning to `O=C(C1CCN(Cc2cc(Cl)ccc2Cl)C1)N1CCN(C2CC2)c2ccccc21` (stereo not drawn) [Example 57, (4-cyclopropyl-3,4-dihydroquinoxalin-1(2H)-yl)(1-(2,5-dichlorobenzyl)pyrrolidin-3-yl) methanone], the EC50 in data set [1] was above 25.1 µM; in data set [2], 1.26 to 50.1 µM; in data set [3], 1.26 to 50.1 µM.

In the case of `O=C(c1cccn1Cc1cc(Cl)ccc1Cl)N1CCN(C2CC2)c2ccccc21` [Example 61, (4-cyclopropyl-3,4-dihydroquinoxalin-1(2H)-yl)(1-(2,5-dichlorobenzyl)-1H-pyrrol-2-yl)methanone], the EC50 in data set [1] is above 25.1 µM; in data set [2], 0.126 to 1 µM; in data set [3], 0.126 to 1 µM.

With `O=C(c1nccn1Cc1cc(Cl)ccc1Cl)N1CCN(C2CC2)c2ccccc21` [Example 62, (4-cyclopropyl-3,4-dihydroquinoxalin-1(2H)-yl)(1-(2,5-dichlorobenzyl)-1H-imidazol-2-yl)methanone], the EC50 in data set [1] was above 25.1 µM; in data set [2] it was 1.26 to 50.1 µM; in data set [3], 1.26 to 50.1 µM.

With `O=C(c1cccc(OCc2cc(Cl)ccc2Cl)n1)N1CCN(C2CC2)c2ccccc21` [Example 63, 1-cyclopropyl-4-([6-[(2,5-dichlorophenyl)methoxy]pyridin-2-yl]carbonyl)-1,2,3,4-tetrahydroquinoxaline], the EC50 was above 25.1 µM in data set [1], 1.26 to 50.1 µM in data set [2] and 1.26 to 50.1 µM in data set [3].

Turning to `O=C(c1cccc(=O)n1Cc1cc(Cl)ccc1Cl)N1CCN(C2CC2)c2ccccc21` [Example 64, 6-[(4-cyclopropyl-1,2,3,4-tetrahydroquinoxalin-1-yl)carbonyl]-1-[(2,5-dichlorophenyl)methyl]-1,2-dihydropyridin-2-one], the EC50 in data set [1] was above 25.1 µM; in data set [2], 1.26 to 50.1 µM; in data set [3], 1.26 to 50.1 µM.

`Cc1nn(C)c(Oc2cc(Cl)ccc2Cl)c1C(=O)N1CCN(C2CC2)c2ccccc21` [Example 65, 1-cyclopropyl-4-[[5-(2,5-dichlorophenoxy)-1,3-dimethyl-1H-pyrazol-4-yl]carbonyl]-1,2,3,4-tetrahydroquinoxaline]: the EC50 is above 25.1 µM in data set [1], 1.26 to 50.1 µM in data set [2] and 1.26 to 50.1 µM in data set [3].

Turning to `O=C(c1ncoc1Cc1cc(Cl)ccc1Cl)N1CCN(C2CC2)c2ccccc21` [Example 66, 1-cyclopropyl-4-([5-[(2,5-dichlorophenyl)methyl]-1,3-oxazol-4-yl]carbonyl)-1,2,3,4-tetrahydroquinoxaline], the results for the EC50 in data set [1], in data set [2] and in data set [3] were above 25.1 µM, 1.26 to 50.1 µM and 1.26 to 50.1 µM, respectively.

`Cn1c(C(=O)NC[C@H](O)[C@@H](O)[C@H](O)[C@H](O)CO)cnc1SCc1cc(Cl)c(CN2CSC[C@H]2C(=O)N2CCN(C3CC3)c3ccccc32)cc1Cl` [Example 175, 2-((2,5-dichloro-4-(((R)-4-(4-cyclopropyl-1,2,3,4-tetrahydroquinoxaline-1-carbonyl)thiazolidin-3-yl)methyl)benzyl)thio)-1-methyl-N-((2S,3R,4R,5R)-2,3,4,5,6-pentahydroxyhexyl)-1H-imidazole-5-carboxamide]: the EC50 in data set [1] was above 25.1 µM. The “Number of Mice with Plasma Concentration < LLOQ” value in data set [4] is recorded as 7/8. In addition, the “Number of Mice with Gallbladder Concentration < LLOQ” value in data set [5] is 0/8.

`O=C(NCCCCCc1cc(Cl)c(CN2CSC[C@H]2C(=O)N2CCN(C3CC3)c3ccccc32)cc1Cl)NC(CO)(CO)CO` [Example 198]: in data set [6] (8 h, vs. vehicle, one-way ANOVA, Dunnett's test), the “Gallbladder weight/body weight fold change over vehicle, Significance” value was “* (* p < 0.05 vs. vehicle; One-way ANOVA followed by Dunnett's test)”. In data set [6] (food removed, eight hours after dosing), the “Gallbladder weight/body weight fold change over vehicle, Mean” value is 1.9 fold change over vehicle. Moreover, the EC50 in data set [1] was above 25.1 µM. In addition, in data set [4], the “Number of Mice with Plasma Concentration < LLOQ” value was 0/8 and the concentration at 8 h was 3.6 ng/mL. In data set [5], the “Number of Mice with Gallbladder Concentration < LLOQ” value was 0/8 and the concentration at 8 h is 1300 nM.

The term pEC50 denotes −log10 of the EC50, conventionally taken in molar units. In the case of `O=C(O)CNC(=O)CNC(=O)CNC(=O)CCCCc1cc(Cl)c(CN2CSC[C@H]2C(=O)N2CCN(C3CC3)c3ccccc32)cc1Cl` [Example 228], the EC50 in data set [1] was above 25.1 µM. The pEC50 in data set [2] was above 7.00. For the same compound, in data set [4], the “Number of Mice with Plasma Concentration < LLOQ” value is reported as 8/8 and the concentration at 8 h is below 0.5 ng/mL. In addition, in data set [5], the “Number of Mice with Gallbladder Concentration < LLOQ” value was 0/8 and the concentration at 8 h turned out to be 600 nM.

For the compound `CN(C[C@H](O)[C@@H](O)[C@H](O)[C@H](O)CO)C(=O)CCCCc1cc(Cl)c(CN2CSC[C@H]2C(=O)N2CCN(C3CC3)c3ccccc32)cc1Cl` [Example 238], the EC50 in data set [1] is above 25.1 µM. Moreover, in data set [4], the “Number of Mice with Plasma Concentration < LLOQ” value was 3/8 and the concentration at 8 h worked out at 1.2 ng/mL. In data set [5], the “Number of Mice with Gallbladder Concentration < LLOQ” value was 0/8 and the concentration at 8 h is 4400 nM.

As to `O=C(CCCCc1cc(Cl)c(CN2CSC[C@H]2C(=O)N2CCN(C3CC3)c3ccccc32)cc1Cl)N[C@@H](C(=O)O)[C@@H](O)[C@H](O)[C@H](O)CO` [Example 240], in data set [1], the EC50 was above 25.1 µM. The compound also gave a pEC50 in data set [2] above 7.00. In addition, in data set [4], the “Number of Mice with Plasma Concentration < LLOQ” value is 0/8 and the concentration at 8 h came out at 28.1 ng/mL. In addition, in data set [5], the “Number of Mice with Gallbladder Concentration < LLOQ” value was 0/8 and the concentration at 8 h was found to be 3920 nM.

In the case of `O=C(O)CNC(=O)[C@H](CSSC[C@H](NC(=O)CC[C@H](NC(=O)CCCCc1cc(Cl)c(CN2CSC[C@H]2C(=O)N2CCN(C3CC3)c3ccccc32)cc1Cl)C(=O)O)C(=O)NCC(=O)O)NC(=O)CC[C@H](NC(=O)CCCCc1cc(Cl)c(CN2CSC[C@H]2C(=O)N2CCN(C3CC3)c3ccccc32)cc1Cl)C(=O)O` [Example 241], the pEC50 in data set [1] was below 4.60; in data set [2], above 7.00. Further, the “Number of Mice with Plasma Concentration < LLOQ” value in data set [4] is on record as 8/8. The concentration at 8 h is below 10 ng/mL in data set [4] and below 60 nM in data set [5]. For the same compound, the “Number of Mice with Gallbladder Concentration < LLOQ” value in data set [5] was 8/8.

These data come from US20150148311A1, “NON-SYSTEMIC TGR5 AGONISTS” (Ardelyx, Inc., priority 2011, published 2015).
